Results: patent publication US6632808B1 (priority 1998, dated 2003)

Tested on: hamster 263K scrapie
Design: species or system transgenic mice over-expressing the hamster PrP-sen (Tg7)
Details: in vivo

**Q.** Which results are given for Phthalocyanine tetrasulfonate [PcTS]?
**A.** animals surviving a minimum of 200 days: 60%; increase of survival times, late treatment: one week; survival longer than untreated controls: approximately 120 days; survivors at >170 Dpi: 80%
